In publication doi:10.1101/141937v1 (biorxiv, 2017) one finds Kd data, which are given here for one molecule.

The target of this test is T1, EmrE (Escherichia coli, UniProt P23895).
T1 sequence (P23895 1-110): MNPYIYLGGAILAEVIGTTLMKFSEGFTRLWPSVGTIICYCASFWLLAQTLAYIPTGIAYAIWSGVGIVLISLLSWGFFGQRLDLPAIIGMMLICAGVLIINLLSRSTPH
The test can be described thus: biochemical.

For `c1ccc([P+](c2ccccc2)(c2ccccc2)c2ccccc2)cc1` [TPP^+], the dissociation constant (Kd) – broadly, the concentration at which binding is half-saturated – was 70 ± 9 µM.
